Reference: patent US20250195502A1, “APPLICATION OF TETRACYCLIC COMPOUND IN TREATMENT OF TUMORS” (SHANGHAI SHIJIANG BIOTECHNOLOGY CO., LTD, priority 2022, published 2025)
Where two headings read alike, the source gives them in different places.

Tests used:
Type in all cases: cell-based
[1] = test system: NCI-H82 (human small cell lung cancer cell); experiment: Cell viability assay (Promega CellTiter-Glo), inhibitory effect on NCI-H82; conditions: 72 h, 3 days of culture
Experimental: (§1) The inhibitory effect of the compounds prepared in the Examples of the present invention on various tumor cell lines was detected using cell viability assay reagent.
(§2) Cell viability was detected using the Promega CellTiter-Glo kit, cell viability was determined by directly measuring intracellular ATP content. In the experiment, the ICso value of the compounds prepared in the Examples of the present invention on various tumor cell lines was detected.
(§3) Each tumor cell was cultured in relevant medium. After cell passage, the gradient diluted compounds prepared in the Examples of the present invention was added. After 3 days of culture, the relevant IC50 (50% inhibiting concentration) was measured. The name, source and culture conditions of each tumor cell line were as follows:
Cell line NCI-H82 (ATCC, No. HTB-175) was cultured in 10% fetal bovine serum-containing RPMI1640 medium (+P/S).

[2] = test system: SW48 (human colon adenocarcinoma cell); experiment: Cell viability assay (Promega CellTiter-Glo), inhibitory effect on SW48; conditions: 72 h, 3 days of culture
Experimental: as §1, §2, §3
Cell line SW48 (ATCC, No. CCL-231) was cultured in 10% fetal bovine serum-containing Leibovitz's L-15 medium (+P/S).

[3] = test system: G-401 (human renal carcinoma Wilms cell); experiment: Cell viability assay (Promega CellTiter-Glo), inhibitory effect on G-401; conditions: 72 h, 3 days of culture
Experimental: as §1, §2, §3
Cell line G-401 (ATCC, No. CRL-1441) was cultured in 10% fetal bovine serum-containing McCoy's 5a medium (+P/S).

[4] = test system: MDA-MB-453 (breast cancer cell); experiment: Cell viability assay (Promega CellTiter-Glo), inhibitory effect on MDA-MB-453; conditions: Homo sapiens, 72 h, 3 days of culture
Experimental: as §1, §2, §3
Cell line MDA-MB-453 (ATCC, No. HTB-131) was cultured in 10% fetal bovine serum-containing Leibovitz's L-15 medium (+P/S).

[5] = test system: CFPAC-1 (human pancreatic cancer cell); experiment: Cell viability assay (Promega CellTiter-Glo), inhibitory effect on CFPAC-1; conditions: 72 h, 3 days of culture
Experimental: as §1, §2, §3
Cell line CFPAC-1 (ATCC, No. CRL-1918) was cultured in 10% fetal bovine serum-containing IMDM medium (+P/S).

[6] = test system: 786-O (clear cell renal cell adenocarcinoma cell); experiment: Cell viability assay (Promega CellTiter-Glo), inhibitory effect on 786-O; conditions: Homo sapiens, 786-0, 72 h, 3 days of culture
Experimental: as §1, §2, §3
Cell line 786-0 (ATCC, No. CRL-1932) was cultured in 10% fetal bovine serum-containing RPMI1640 medium (+P/S).

[7] = test system: SF126 (human glioblastoma multiforme cell); experiment: Cell viability assay (Promega CellTiter-Glo), inhibitory effect on SF126
Experimental: as §1, §2, §3
Cell line SF126 (JCRB, No. IFO50286) was cultured in 10% fetal bovine serum-containing EMEM medium (+P/S).
(§4) The inhibitory effect of the compounds prepared in the Examples of the present invention on various brain tumor cell lines was detected using cell viability assay reagent.
(§5) Cell viability was detected using the Promega CellTiter-Glo kit, cell viability was determined by directly measuring intracellular ATP content. In the experiment, the IC50 value of the compounds prepared in the Examples of the present invention on various brain tumor cell lines was detected.

[8] = test system: GB-1 (human brain glioblastoma cell); experiment: Cell viability assay (Promega CellTiter-Glo), inhibitory effect on GB-1; conditions: 72 h, 3 days of culture
Experimental: as §1, §2, §3
Cell line GB-1 (JCRB, No. IFO50489) was cultured in 10% fetal bovine serum-containing DMEM medium (+P/S).
as §4, §5

[9] = test system: Kelly (brain neuroblastoma cell); experiment: Cell viability assay (Promega CellTiter-Glo), inhibitory effect on Kelly; conditions: Homo sapiens, 72 h, 3 days of culture, read-out: inhibitory effect on brain cell line Kelly (IC50)
Experimental: as §4, §5, §3
Cell line Kelly (ECACC, No. 92110411) was cultured in 10% fetal bovine serum and 2 mM glutamine-containing RPMI1640 medium.

[10] = test system: NB-1 (brain neuroblastoma cell); experiment: Cell viability assay (Promega CellTiter-Glo), inhibitory effect on NB-1; conditions: Homo sapiens, 72 h, 3 days of culture, read-out: inhibitory effect on brain cell line NB-1 (IC50)
Experimental: as §4, §5, §3
Cell line NB-1 (ATCC, No. HTB-131) was cultured in 10% fetal bovine serum-containing Leibovitz's L-15 medium (+P/S).

[11] = test system: D341 Med (cerebellar medulloblastoma cell); experiment: Cell viability assay (Promega CellTiter-Glo), inhibitory effect on D341 Med; conditions: Homo sapiens, 72 h, 3 days of culture, read-out: inhibitory effect on brain cell line D341 Med (IC50)
Experimental: as §4, §5, §3
Cell line D341 Med (ATCC, No. HTB-187) was cultured in 20% fetal bovine serum-containing EMEM medium (+P/S).

[12] = test system: Con-NCI-H82 cell (NCI-H82 transfected with empty virus vector); experiment: Cell viability assay (Promega CellTiter-Glo), inhibitory effect on Con-NCI-H82 cell; conditions: Homo sapiens; NCI-H82 transfected with empty virus vector (control); CellTiter-Glo; read-out: inhibitory effect on Con-NCI-H82 (IC50)
Experimental: (§6) The role of expression level of NNMT gene and DNMT1 in the sensitivity of NCI-H82 cell to the compounds prepared in the Examples of the present invention was determined
(§7) The expression of NNMT protein in NCI-H82 cell was overexpressed by inserting the NNMT gene into NCI-H82 cell using a viral vector, and the NNMT protein-overexpressing NCI-H82 cell (ov-NNMT NCI-H82 cell) was obtained. The expression of DNMT1 in NCI-H82 cell was knocked down transfecting (the by shRNA nucleotide sequence of shRNA was […] TTTTTG (SEQ ID No: 2)) using a viral vector, and the NCI-H82 cell with low expression of DNMT1 protein (sh-DNMT1 NCI-H82 cell) was obtained. The control NCI-H82 cell (Con-NCI-H82 cell) was obtained by transfecting NCI-H82 cell with empty virus vector without carrying NNMT gene and shRNA. The expressing content of NNMT protein and DNMT1 protein in the Con-NCI-H82 cell, the expressing content of NNMT protein in the ov-NNMT NCI-H82 cell, and the expressing content of DNMT1 protein in the sh-DNMT1 NCI-H82 cell were detected using Western Blot assay (as shown in FIG. 15 and FIG. 16), it could be seen from FIG. 15 and FIG. 16 that the NNMT protein was overexpressed in the ov-NNMT NCI-H82 cell and the expression of DNMT1 protein was knocked down (i.e, low expression) in the sh-DNMT1 NCI-H82 cell compared with the expression level of NNMT protein and DNMT protein in the Con-NCI-H82 cell.

[13] = test system: ov-NNMT NCI-H82 cell (NNMT protein-overexpressing NCI-H82); experiment: Cell viability assay (Promega CellTiter-Glo), inhibitory effect on ov-NNMT NCI-H82 cell; conditions: Homo sapiens
Experimental: as §6, §7

[14] = test system: sh-DNMT1 NCI-H82 cell (DNMT1 knocked down NCI-H82); experiment: Cell viability assay (Promega CellTiter-Glo), inhibitory effect on sh-DNMT1 NCI-H82 cell; conditions: Homo sapiens, NCI-H82 with DNMT1 knocked down by shRNA
Experimental: as §6, §7

[15] = 72 h, SF-126, 3 days of culture, Table 3, read-out: inhibitory effect on SF-126 (IC50)
[16] = SF-126, 72 h, SF126, 3 days of culture, Table 4, read-out: inhibitory effect on brain cell line SF126 (IC50)
[17] = Table 3, read-out: inhibitory effect on GB-1 (IC50)
[18] = Table 4, read-out: inhibitory effect on brain cell line GB-1 (IC50)

Structure (SMILES)	IC50 [1]	IC50 [2]	IC50 [3]	IC50 [4]	IC50 [5]	IC50 [6]	IC50 [7, 15]	IC50 [7, 16]	IC50 [8, 17]	IC50 [8, 18]	IC50 [9]	IC50 [10]	IC50 [11]	IC50 [12]	IC50 [13]	IC50 [14]
COc1ccc2cc3[n+](cc2c1OC/C=C(\C)CCC=C(C)C)CCc1cc2c(cc1-3)OCO2 [compound AB31737]	240 nM	200 nM	170 nM	90 nM	4.6 µM	2.34 µM	4.14 µM	4.14 µM	2.66 µM	2.66 µM	360 nM	20 nM	400 nM	240 nM	730 nM	940 nM
CCCCCCCCNc1c(OC)ccc2cc3[n+](cc12)CCc1cc2c(cc1-3)OCO2 [compound AB31739]	450 nM	430 nM	530 nM	370 nM	6.07 µM	3.05 µM	3.57 µM	3.57 µM	3.97 µM	3.97 µM	640 nM	90 nM	860 nM	450 nM	950 nM	1550 nM
COc1ccc2cc3[n+](cc2c1NCCc1ccccc1)CCc1cc2c(cc1-3)OCO2 [compound AB31740]	490 nM	340 nM	930 nM	200 nM	12.4 µM	5.13 µM	7.77 µM	7.77 µM	7.74 µM	7.74 µM	840 nM	80 nM	530 nM	490 nM	1550 nM	1570 nM
COc1ccc2c(Cc3ccc(C(C)(C)C)cc3)c3[n+](cc2c1OC)CCc1cc2c(cc1-3)OCO2 [compound AB31748]	320 nM	420 nM	320 nM	320 nM	4.95 µM	3.93 µM	3.53 µM	3.53 µM	3.21 µM	3.21 µM	460 nM	210 nM	670 nM	320 nM	780 nM	910 nM
CCCCc1c2[n+](cc3c(OC)c(OC)ccc13)CCc1cc3c(cc1-2)OCO3 [compound AB31757]	880 nM	650 nM	740 nM	680 nM	29.9 µM	15.2 µM	16 µM	16 µM	17.5 µM	17.5 µM	1500 nM	150 nM	2820 nM	880 nM	3320 nM	3820 nM
CCCCCc1c2[n+](cc3c(OC)c(OC)ccc13)CCc1cc3c(cc1-2)OCO3 [compound AB31758]	360 nM	490 nM	420 nM	400 nM	8.32 µM	5.41 µM	5.14 µM	5.14 µM	6.47 µM	6.47 µM	590 nM	120 nM	980 nM	360 nM	920 nM	1380 nM
CCCCCCc1c2[n+](cc3c(OC)c(OC)ccc13)CCc1cc3c(cc1-2)OCO3 [compound AB31759]	270 nM	310 nM	310 nM	310 nM	8.15 µM	3.18 µM	3.94 µM	3.94 µM	3.47 µM	3.47 µM	410 nM	120 nM	850 nM	270 nM	640 nM	1180 nM
